From US8969325B2, “TRPV1 antagonists” (AbbVie Inc., priority 2011, dated 2015)

Key:
human TRPV1 [1] = molecular target: T1, human TRPV1 (Homo sapiens (Human), UniProt Q8NER1); assay: Capsaicin Activation Assay (intracellular Ca2+, FLIPR); assay type: cell-based; details: recombinant HEK293 cells expressing hTRPV1, 50 nM capsaicin
Procedure, shortened: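 Ca2+ fluorescence was recorded by FLIPR every 1 to 5 seconds in HEK293 cells, clonally selected for stable human TRPV1 expression and plated one day ahead. Test compounds came as serial dilutions of 10 mM DMSO stocks.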

human TRPV1 [2] = molecular target: T1, human TRPV1; assay: Acid Activation Assay (pH 5.0, intracellular Ca2+, FLIPR); assay type: cell-based; details: percentage of the maximal pH 5.0-induced response remaining; recombinant HEK293 hTRPV1 cells; maximum concentration tested 37.5 μM
Procedure, shortened: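 Readout: peak [Ca2+]i fluorescence over baseline on FLIPR, expressed as percentage remaining of the maximal pH 5.0-evoked signal. Stable hTRPV1-HEK293 cells with Calcium-4 dye received compound (12 half-log concentrations, maximum 37.5 μM) 3 min before acidic pH 5.0 buffer.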

T1 sequence (Q8NER1 whole entry): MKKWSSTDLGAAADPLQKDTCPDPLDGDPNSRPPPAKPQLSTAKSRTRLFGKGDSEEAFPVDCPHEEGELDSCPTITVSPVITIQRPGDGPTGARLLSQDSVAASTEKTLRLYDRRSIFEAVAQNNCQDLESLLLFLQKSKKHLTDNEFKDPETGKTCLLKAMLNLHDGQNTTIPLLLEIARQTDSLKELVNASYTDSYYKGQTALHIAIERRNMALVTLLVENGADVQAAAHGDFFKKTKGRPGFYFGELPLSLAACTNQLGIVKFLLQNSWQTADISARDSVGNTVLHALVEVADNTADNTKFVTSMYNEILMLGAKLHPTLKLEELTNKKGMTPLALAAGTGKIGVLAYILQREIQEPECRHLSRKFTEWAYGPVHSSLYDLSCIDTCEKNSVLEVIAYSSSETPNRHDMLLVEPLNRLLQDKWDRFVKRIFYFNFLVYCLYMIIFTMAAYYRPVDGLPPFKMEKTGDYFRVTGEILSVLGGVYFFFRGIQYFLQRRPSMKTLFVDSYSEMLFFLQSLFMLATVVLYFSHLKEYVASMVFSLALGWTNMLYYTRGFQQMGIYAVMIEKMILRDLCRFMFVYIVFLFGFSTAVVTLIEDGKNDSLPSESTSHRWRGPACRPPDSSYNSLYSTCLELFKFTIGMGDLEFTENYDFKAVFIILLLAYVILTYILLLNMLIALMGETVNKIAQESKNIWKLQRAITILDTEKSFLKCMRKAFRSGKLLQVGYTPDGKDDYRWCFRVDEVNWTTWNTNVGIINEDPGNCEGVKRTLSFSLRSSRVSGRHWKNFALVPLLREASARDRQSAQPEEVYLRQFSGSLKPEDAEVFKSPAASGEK

Structure (SMILES)	IC50 (human TRPV1 [1]) [nM]	human TRPV1 H^+ (max % remain) (human TRPV1 [2]) [%]
CN1C(=O)CCc2ccc(NC(=O)N[C@@H]3CC(C)(C)Oc4c3ccc(F)c4Cl)cc21 [Example 275, 1-[(4R)-8-chloro-7-fluoro-2,2-dimethyl-3,4-dihydro-2H-chromen-4-yl]-3-(1-methyl-2-oxo-1,2,3,4-tetrahydroquinolin-7-yl)urea]	920	83
CN1C(=O)CCc2ccc(NC(=O)N[C@H]3CCOc4cc(OC(F)(F)F)ccc43)cc21 [Example 276, 1-(1-methyl-2-oxo-1,2,3,4-tetrahydroquinolin-7-yl)-3-[(4S)-7-(trifluoromethoxy)-3,4-dihydro-2H-chromen-4-yl]urea]	44	77
CN1C(=O)CCc2ccc(NC(=O)N[C@@H]3CC(CF)(CF)Oc4ccccc43)cc21 [Example 280, 1-[(4R)-2,2-bis(fluoromethyl)-3,4-dihydro-2H-chromen-4-yl]-3-(1-methyl-2-oxo-1,2,3,4-tetrahydroquinolin-7-yl)urea]	960	68
CN1C(=O)CCc2ccc(NC(=O)N[C@@H]3CCOc4ccc(F)cc43)cc21 [Example 282, 1-[(4R)-6-fluoro-3,4-dihydro-2H-chromen-4-yl]-3-(1-methyl-2-oxo-1,2,3,4-tetrahydroquinolin-7-yl)urea]	410	81
CN1C(=O)CCc2ccc(NC(=O)N[C@H]3CC4(CCC4)Oc4ccc(F)cc43)cc21 [Example 286, 1-[(4S)-6-fluoro-3,4-dihydrospiro[chromene-2,1′-cyclobutan]-4-yl]-3-(1-methyl-2-oxo-1,2,3,4-tetrahydroquinolin-7-yl)urea]	260	68
CN1C(=O)CCc2ccc(NC(=O)N[C@@H]3C[C@@](C)(CF)Oc4cc(C(F)(F)F)ccc43)cc21 [Example 289, 1-[(2S,4R)-2-(fluoromethyl)-2-methyl-7-(trifluoromethyl)-3,4-dihydro-2H-chromen-4-yl]-3-(1-methyl-2-oxo-1,2,3,4-tetrahydroquinolin-7-yl)urea]	230	68
CN1C(=O)CCc2ccc(NC(=O)N[C@@H]3C[C@](C)(C(F)F)Oc4ccccc43)cc21 [Example 293, 1-[(2R,4R)-2-(difluoromethyl)-2-methyl-3,4-dihydro-2H-chromen-4-yl]-3-(1-methyl-2-oxo-1,2,3,4-tetrahydroquinolin-7-yl)urea]	270	72
CN1C(=O)CCc2ccc(NC(=O)N[C@@H]3CC(C)(C)Oc4nc(C(F)(F)F)ccc43)cc21 [Example 295, 1-[(4R)-2,2-dimethyl-7-(trifluoromethyl)-3,4-dihydro-2H-pyrano[2,3-b]pyridin-4-yl]-3-(1-methyl-2-oxo-1,2,3,4-tetrahydroquinolin-7-yl)urea]	99	67
CN1C(=O)CCc2ccc(NC(=O)N[C@@H]3CC(C)(C)Oc4cc(Br)ccc43)cc21 [Example 297, 1-[(4R)-7-bromo-2,2-dimethyl-3,4-dihydro-2H-chromen-4-yl]-3-(1-methyl-2-oxo-1,2,3,4-tetrahydroquinolin-7-yl)urea]	130	67
CN1C(=O)CCc2ccc(NC(=O)N[C@@H]3CC(C)(C)Oc4c3ccc(F)c4F)cc21 [Example 299, 1-[(4R)-7,8-difluoro-2,2-dimethyl-3,4-dihydro-2H-chromen-4-yl]-3-(1-methyl-2-oxo-1,2,3,4-tetrahydroquinolin-7-yl)urea]	54	84
O=C(Nc1ccc2c(c1)NC(=O)C(N1CCOCC1)C2)N[C@@H]1CC(CF)(CF)Oc2cc(Cl)ccc21 (stereo partly drawn) [Example 300, 1-[(4R)-7-chloro-2,2-bis(fluoromethyl)-3,4-dihydro-2H-chromen-4-yl]-3-[3-(morpholin-4-yl)-2-oxo-1,2,3,4-tetrahydroquinolin-7-yl]urea]	62	75
CC1(C)C[C@@H](NC(=O)Nc2ccc3c(c2)NC(=O)C(N2CCOCC2)C3)c2ccc(F)cc2O1 (stereo partly drawn) [Example 301, 1-[(4R)-7-fluoro-2,2-dimethyl-3,4-dihydro-2H-chromen-4-yl]-3-[3-(morpholin-4-yl)-2-oxo-1,2,3,4-tetrahydroquinolin-7-yl]urea]	1300	60

Further lines, results first:

IC50 (human TRPV1 [1]) [nM]	human TRPV1 H^+ (max % remain) (human TRPV1 [2]) [%]	Structure (SMILES)
4200	33	CN1C(=O)CCc2ccc(NC(=O)N[C@@H]3CC(C)(C)Oc4cc(Cl)ccc43)cc21 [Example 277, 1-[(4R)-7-chloro-2,2-dimethyl-3,4-dihydro-2H-chromen-4-yl]-3-(1-methyl-2-oxo-1,2,3,4-tetrahydroquinolin-7-yl)urea]
77	68	CN1C(=O)CCc2ccc(NC(=O)N[C@@H]3CCOc4cc(OC(F)(F)F)ccc43)cc21 [Example 278, 1-(1-methyl-2-oxo-1,2,3,4-tetrahydroquinolin-7-yl)-3-[(4R)-7-(trifluoromethoxy)-3,4-dihydro-2H-chromen-4-yl]urea]
510	50	COCC1(COC)C[C@@H](NC(=O)Nc2ccc3c(c2)N(C)C(=O)CC3)c2cc(F)ccc2O1 [Example 279, 1-[(4R)-6-fluoro-2,2-bis(methoxymethyl)-3,4-dihydro-2H-chromen-4-yl]-3-(1-methyl-2-oxo-1,2,3,4-tetrahydroquinolin-7-yl)urea]
820	86	CN1C(=O)CCc2ccc(NC(=O)N[C@@H]3CC(CF)(CF)Oc4c(F)cccc43)cc21 [Example 281, 1-[(4R)-8-fluoro-2,2-bis(fluoromethyl)-3,4-dihydro-2H-chromen-4-yl]-3-(1-methyl-2-oxo-1,2,3,4-tetrahydroquinolin-7-yl)urea]
4800	84	CN1C(=O)CCc2ccc(NC(=O)N[C@@H]3CCc4cc(Cl)ccc43)cc21 [Example 283, 1-[(1R)-5-chloro-2,3-dihydro-1H-inden-1-yl]-3-(1-methyl-2-oxo-1,2,3,4-tetrahydroquinolin-7-yl)urea]
55	27	CN1C(=O)CCc2ccc(NC(=O)N[C@@H]3CCc4cc(F)ccc43)cc21 [Example 285, 1-[(1R)-5-fluoro-2,3-dihydro-1H-inden-1-yl]-3-(1-methyl-2-oxo-1,2,3,4-tetrahydroquinolin-7-yl)urea]
13000	92	CN1C(=O)CCc2ccc(NC(=O)N[C@H]3CC(C)(C)Oc4ccc(F)cc43)cc21 [Example 287, 1-[(4S)-6-fluoro-2,2-dimethyl-3,4-dihydro-2H-chromen-4-yl]-3-(1-methyl-2-oxo-1,2,3,4-tetrahydroquinolin-7-yl)urea]
10000	75	CN1C(=O)CCc2ccc(NC(=O)N[C@@H]3CC4(CCCC4)Oc4ccccc43)cc21 [Example 288, 1-[(4R)-3,4-dihydrospiro[chromene-2,1′-cyclopentan]-4-yl]-3-(1-methyl-2-oxo-1,2,3,4-tetrahydroquinolin-7-yl)urea]
15	68	CN1C(=O)CCc2ccc(NC(=O)N[C@@H]3C[C@](C)(CF)Oc4cc(C(F)(F)F)ccc43)cc21 [Example 290, 1-[(2R,4R)-2-(fluoromethyl)-2-methyl-7-(trifluoromethyl)-3,4-dihydro-2H-chromen-4-yl]-3-(1-methyl-2-oxo-1,2,3,4-tetrahydroquinolin-7-yl)urea]
26	71	CN1C(=O)CCc2ccc(NC(=O)N[C@@H]3C[C@@](C)(CF)Oc4cc(Cl)ccc43)cc21 [Example 291, 1-[(2S,4R)-7-chloro-2-(fluoromethyl)-2-methyl-3,4-dihydro-2H-chromen-4-yl]-3-(1-methyl-2-oxo-1,2,3,4-tetrahydroquinolin-7-yl)urea]
26	68	CN1C(=O)CCc2ccc(NC(=O)N[C@@H]3C[C@@](C)(C(F)F)Oc4ccccc43)cc21 [Example 292, 1-[(2S,4R)-2-(difluoromethyl)-2-methyl-3,4-dihydro-2H-chromen-4-yl]-3-(1-methyl-2-oxo-1,2,3,4-tetrahydroquinolin-7-yl)urea]
120	71	CN1C(=O)CCc2ccc(NC(=O)N[C@@H]3CC(C)(C)Oc4c3ccc(Cl)c4F)cc21 [Example 294, 1-[(4R)-7-chloro-8-fluoro-2,2-dimethyl-3,4-dihydro-2H-chromen-4-yl]-3-(1-methyl-2-oxo-1,2,3,4-tetrahydroquinolin-7-yl)urea]
130	68	CN1C(=O)CCc2ccc(NC(=O)N[C@@H]3CC(CF)(CF)Oc4cc(F)ccc43)cc21 [Example 296, 1-[(4R)-7-fluoro-2,2-bis(fluoromethyl)-3,4-dihydro-2H-chromen-4-yl]-3-(1-methyl-2-oxo-1,2,3,4-tetrahydroquinolin-7-yl)urea]
67	69	CN1C(=O)CCc2ccc(NC(=O)N[C@@H]3C[C@@](C)(C(F)(F)F)Oc4ccccc43)cc21 [Example 298, 1-(1-methyl-2-oxo-1,2,3,4-tetrahydroquinolin-7-yl)-3-[(2S,4R)-2-methyl-2-(trifluoromethyl)-3,4-dihydro-2H-chromen-4-yl]urea]
200	36	O=C(Nc1ccc2c(c1)NC(=O)C(N1CCCOCC1)C2)N[C@@H]1CC(CF)(CF)Oc2cc(Cl)ccc21 (stereo partly drawn) [Example 302, 1-[(4R)-7-chloro-2,2-bis(fluoromethyl)-3,4-dihydro-2H-chromen-4-yl]-3-[3-(1,4-oxazepan-4-yl)-2-oxo-1,2,3,4-tetrahydroquinolin-7-yl]urea]
